The text below walks through data of patent US20100311714A1, “1H-IMIDAZO[4,5-c]QUINOLINONE COMPOUNDS” (priority 2009, published 2010).

The structures appear in SMILES notation.

T1 sequence (P48736 144-1102 limits assumed): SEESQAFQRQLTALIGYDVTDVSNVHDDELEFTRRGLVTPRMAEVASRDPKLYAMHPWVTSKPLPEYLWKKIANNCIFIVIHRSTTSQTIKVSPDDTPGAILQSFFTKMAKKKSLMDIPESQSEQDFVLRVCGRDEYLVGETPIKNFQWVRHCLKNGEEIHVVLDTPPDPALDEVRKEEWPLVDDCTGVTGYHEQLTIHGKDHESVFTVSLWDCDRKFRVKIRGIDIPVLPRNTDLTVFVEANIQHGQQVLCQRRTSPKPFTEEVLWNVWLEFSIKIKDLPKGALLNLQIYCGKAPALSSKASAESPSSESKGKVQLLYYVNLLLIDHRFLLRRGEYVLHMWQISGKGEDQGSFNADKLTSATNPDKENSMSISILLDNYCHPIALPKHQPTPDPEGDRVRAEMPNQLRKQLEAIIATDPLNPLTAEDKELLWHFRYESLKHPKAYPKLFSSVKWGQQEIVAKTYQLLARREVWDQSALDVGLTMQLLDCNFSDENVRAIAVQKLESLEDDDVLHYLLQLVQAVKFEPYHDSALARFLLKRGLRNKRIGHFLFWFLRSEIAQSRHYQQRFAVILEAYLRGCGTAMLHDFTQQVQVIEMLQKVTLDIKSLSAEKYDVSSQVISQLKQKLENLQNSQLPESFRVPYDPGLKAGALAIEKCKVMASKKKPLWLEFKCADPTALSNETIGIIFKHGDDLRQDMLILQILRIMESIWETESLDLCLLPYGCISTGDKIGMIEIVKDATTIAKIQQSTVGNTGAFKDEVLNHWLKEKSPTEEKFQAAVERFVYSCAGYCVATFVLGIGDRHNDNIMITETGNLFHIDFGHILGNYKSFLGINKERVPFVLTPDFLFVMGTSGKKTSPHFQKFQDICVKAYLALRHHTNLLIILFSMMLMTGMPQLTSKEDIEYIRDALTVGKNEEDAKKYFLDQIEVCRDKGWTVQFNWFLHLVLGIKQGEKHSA

This experiment concerns the target T1, PI3K gamma (Homo sapiens, UniProt P48736).
T1 construct: His tag (C); made in house; host or cells: construct from Roger Williams lab (pVL1393); baculovirus BV950; Tn5 (Trichoplusia ni) or TiniPro insect cells
The experiment can be described thus: PI3K gamma kinase assay (Kinase-Glo luminescence). It is filed as biochemical. The following applies: read-out: PI3Kgamma/IC50. The procedure:
In a more preferred assay, the kinase reaction is performed in a final volume of 10 μL per well of a low volume non binding CORNING, 384 well black plate (Cat. No. #3676). The final concentrations of ATP and phosphatidyl inositol (PI) in the assay are 1 μM and 10 μg/mL respectively. The reaction is started by the addition of ATP.
The components of the assay are added per well as follows:
50 nL test compounds in 90% DMSO per well, in columns 1-20, 8 concentrations (⅓ and 1/3.33 serial dilution step) in single. • Low control: […] of 90% DMSO in half the wells of columns 23-24 (0.45% in final). • High control: 50 nL of reference compound (e.g. compound of Example 7 in WO 2006/122806) in the other half of columns 23-24 (2.5 μM in final). • Standard: 50 nL of reference compound as just mentioned diluted as the test compounds in columns 21-22 • 20 mL ‘buffer’ are prepared per assay: • 200 μL of 1M TRIS HCl pH7.5 (10 mM in final) • 60 μL of 1M MgCl2 (3 mM in final) • 500 μL of 2M NaCl (50 mM in final) • 100 μL of 10% CHAPS (0.05% in final) • 200 μL of 100 mM DTT (1 mM in final) • 18.94 mL of nanopure water • 10 mL ‘PI’ are prepared per assay: • 200 μL of 1 mg/ml L-alpha-Phosphatidylinositol (Liver Bovine, Avanti Polar Lipids Cat. No. 840042C MW=909.12) prepared in 3% OctylGlucoside (10 μg/ml in final) • 9.8 mL of ‘buffer’ • 10 mL ‘ATP’ are prepared per assay: • 6.7 μL of 3 mM stock of ATP giving a final concentration of 1 μM per well • 10 mL of ‘buffer’ • 2.5 mL of each PI3K construct are prepared per assay in ‘PI’ with the following final concentration: • 10 nM PI3K alfa EMV B1075 • 25 nM beta EMV BV949 • 10 nM delta EMV BV1060 • 150 nM gamma EMV BV950 • 5 μL of ‘PI/PI3K’ are added per well. • 5 μl ‘ATP’ are added per well to start the reaction. • The plates are then incubated at room temperature for 60 minutes (alfa, beta, delta) or 120 minutes (gamma). • The reaction is terminated by the addition of 10 μL Kinase-Glo (Promega Cat. No. #6714). • The assay plates are read after 10 minutes in Synergy 2 reader (BioTek, Vermont USA) with an integration time of 100 milliseconds and sensitivity set to 191. • Output: The High control is around 60′000 counts and the Low control is 30′000 or lower • This luminescence assay gives a useful Z′ ratio between 0.4 and 0.7
PI3K gamma is purified in two chromatographic steps: immobilized metal affinity chromatography (IMAC) on a Ni Sepharose resin (GE Healthcare) and gel filtration (GFC) utilizing a Superdex 200 26/60 column (GE Healthcare). All buffers are chilled to 4° C. and lysis is performed chilled on ice. Column fractionation is performed rapidly at room temperature. Typically frozen insect cells are lysed in a hypertonic lysis buffer and applied to a prepared IMAC column. The resin is washed with 3-5 column volumes of lysis buffer, followed by 3-5 column volumes wash buffer containing 45 mM imidazole, and the target protein is then eluted with a buffer containing 250 mM imidazole. Fractions are analyzed by Coomassie stained SDS-PAGE gels, and fractions containing target protein are pooled and applied to a prepared GFC column. Fractions from the GFC column are analyzed by Coomassie stained SDS-PAGE gels, and fractions containing target protein are pooled. The final pool is dialyzed into a storage buffer containing 50% glycerol and stored at −20° C. The final pool is assayed for activity in the phosphoinostitol kinase assay.
IC50 is determined by a four parameter curve fitting routine that comes along with “excel fit”. A 4 Parameter logistic equation is used to calculate IC50 values (IDBS XLfit) of the percentage inhibition of each compound at 8 concentrations (usually 10, 3.0, 1.0, 0.3, 0.1, 0.030, 0.010 and 0.003 μM). Alternatively, IC50 values are calculated using idbsXLfit model 204, which is a 4 parameter logistic model.
Take `COc1ccc(-c2ccc3ncc4c(c3c2)n(-c2cccnc2OC)c(=O)n4C)cn1` [Example 1.1, 1-(2-Methoxy-pyridin-3-yl)-8-(6-methoxy-pyridin-3-yl)-3-methyl-1,3-dihydro-imidazo[4,5-c]quinolin-2-one]: the IC50 was 237 nM.

On to `COc1ncccc1-n1c(=O)n(C)c2cnc3ccc(-c4cnc(N)c(C(F)(F)F)c4)cc3c21` [Example 1.3, 8-(6-Amino-5-trifluoromethyl-pyridin-3-yl)-1-(2-methoxy-pyridin-3-yl)-3-methyl-1,3-dihydro-imidazo[4,5-c]quinolin-2-one], for which the IC50 turned out to be 131 nM. For the molecule `CNc1ccc(-c2ccc3ncc4c(c3c2)n(-c2cccnc2OC)c(=O)n4C)cn1` [Example 1.4, 1-(2-Methoxy-pyridin-3-yl)-3-methyl-8-(6-methylamino-pyridin-3-yl)-1,3-dihydro-imidazo[4,5-c]quinolin-2-one], the IC50 amounted to 227 nM. With `CCOc1ccc(-c2ccc3ncc4c(c3c2)n(-c2cccnc2OC)c(=O)n4C)cn1` [Example 1.5, 8-(6-Ethoxy-pyridin-3-yl)-1-(2-methoxy-pyridin-3-yl)-3-methyl-1,3-dihydro-imidazo[4,5-c]quinolin-2-one] the figure was 211 nM; with `CCOc1ccc(-c2ccc3ncc4c(c3c2)n(-c2cccnc2C)c(=O)n4C)cn1` [Example 2.1, 8-(6-Ethoxy-pyridin-3-yl)-3-methyl-1-(2-methyl-pyridin-3-yl)-1,3-dihydro-imidazo[4,5-c]quinolin-2-one], 587 nM. As for `CNc1ncc(-c2ccc3ncc4c(c3c2)n(-c2cccnc2C)c(=O)n4C)cn1` [Example 2.2, 3-Methyl-8-(2-methylamino-pyrimidin-5-yl)-1-(2-methyl-pyridin-3-yl)-1,3-dihydro-imidazo[4,5-c]quinolin-2-one], the IC50 amounted to 331 nM.

For the molecule `Cc1cccnc1-n1c(=O)n(C)c2cnc3ccc(-c4cnc5ccccc5c4)cc3c21` [Example 3.8, 3-Methyl-1-(3-methyl-pyridin-2-yl)-8-quinolin-3-yl-1,3-dihydro-imidazo[4,5-c]quinolin-2-one], the IC50 was 404 nM. With `COc1ccc(-c2ccc3ncc4c(c3c2)n(-c2ncccc2C)c(=O)n4C)cn1` [Example 3.13, 8-(6-Methoxy-pyridin-3-yl)-3-methyl-1-(3-methyl-pyridin-2-yl)-1,3-dihydro-imidazo[4,5-c]quinolin-2-one], the IC50 stood at 517 nM. As to `COc1ccc(-c2ccc3ncc4c(c3c2)n(-c2cccnc2)c(=O)n4C)cc1OC` [Example 5.2, 8-(3,4-Dimethoxy-phenyl)-3-methyl-1-pyridin-3-yl-1,3-dihydro-imidazo[4,5-c]quinolin-2-one], the IC50 stood at 365 nM. As to `COc1ccc(-c2ccc3ncc4c(c3c2)n(-c2cccnc2)c(=O)n4C)cn1` [Example 5.4, 8-(6-Methoxy-pyridin-3-yl)-3-methyl-1-pyridin-3-yl-1,3-dihydro-imidazo[4,5-c]quinolin-2-one], the IC50 came to 377 nM.
